Laboratory results reported in patent US20100129805A1, “SLC1A1 ANTIPSYCHOTIC DRUG RESPONSE MARKERS” (priority 2006, published 2010).

Tested on: patients with DSM-III-R or DSM-IV diagnoses of SCZ refractory or intolerant to conventional antipsychotics
Assay: Clozapine response after 6 months treatment (% score change on BPRS, BPOS, BNEG) by SLC1A1 genotype/haplotype
Format: in vivo, human
Details: 6 months clozapine
From the text: Effect of 5 Single Nucleotide Polymorphisms (SNPs) Across the SLC1A1 Gene on Clozapine (CZ) Response After 6 Months Treatment in Two Distinct Schizophrenic Populations (Caucasian and African-American) Refractory or Intolerant to Conventional Antipsychotics.
97 patients (73 Caucasians and 24 African-Americans) with DSM-III-R or DSM-IV diagnoses of SCZ assessed from Case Western Reserve University, Cleveland, Ohio.
No significant differences were observed between Caucasians and African-Americans in terms of gender ratio (P=0.234) or mean age (P=0.561). Almost all subjects met criteria for treatment refractoriness or intolerance to typical antipsychotic therapy as defined by Kane et al (1988). Patients underwent a washout period of 2 to 4 weeks during which, unless clinically necessary, they received no medications before starting clozapine (CZ). CZ treatment was continued for a minimum of 6 months during which patients were evaluated prospectively. CZ blood levels were monitored throughout course of treatment to ascertain compliance,
Treatment response is evaluated as a percentage (%) score change from baseline using the 18-item Brief Psychiatric Rating Scale (BPRS), a 4-item positive symptom subscale (BPOS) and 3-item negative symptom subscale (BNEG)—after 6 months of clozapine treatment. % score change=(6 months score−baseline score)/Baseline score. A negative value of % score change in each scale would indicate an improvement in symptoms measured by that particular scale.
Blood samples were collected from clinical sites and sent to the Centre for Addiction and Mental Health (CAMH) in Toronto, ON, Canada—where genotyping of patients' DNA was performed by 5′-exonuclease fluorescence assays. The 5 informative SNPs (minor allele frequency>20%) spanning SLC1A1 were chosen based on location (see Table 1)—with 2 in coding regions and 3 from different intronic regions and different haplotype blocks. Laboratory staff was blind to the psychiatric ratings.
Within each ethnic population, individual SNP analyses of % score changes (continuous data) were performed using Analysis of Variance (ANOVA) in STATA ver7.0. Haplotype analysis of unphased quantitative data was performed using QTPHASE (Dudbridge, 2003).

CN1CCN(C2=Nc3cc(Cl)ccc3Nc3ccccc32)CC1 [clozapine]
Mean BPOS % score change (haplotype 1-1-1 in SNP window 1-2-3, Caucasians and African-Americans combined): −0.198
Mean BNEG % score change (haplotype 1-1 in SNP window 4-5, African-Americans): −0.379
Mean BNEG % score change (haplotype 1-2-1 in SNP window 3-4-5, African-Americans): 0.086
Mean BNEG % score change (haplotype 1-2 in SNP window 3-4, African-Americans): 0.143
Mean BNEG % score change (haplotype 2-1-1 in SNP window 2-3-4, Caucasians): 0.295
Mean BNEG % score change (haplotype 2-1-1 in SNP window 3-4-5, African-Americans): −0.379
Mean BNEG % score change (haplotype 2-1 in SNP window 3-4, African-Americans): −0.341
Mean BNEG % score change (haplotype 2-1 in SNP window 4-5, African-Americans): 0.107
Mean BNEG % score change (haplotype 2-2-1 in SNP window 1-2-3, Caucasians and African-Americans combined): 0.592
Mean BNEG % score change (haplotype 2-2-1 in SNP window 1-2-3, Caucasians): 0.889
Mean BNEG % score change (rs301434 genotype C/C, Caucasians & African-Americans combined): −0.115
Mean BPRS % score change (rs301434 genotype C/C, Caucasians, negative = improvement): −0.248
Mean BNEG % score change (rs301434 genotype T/C, Caucasians & African-Americans combined): −0.136
Mean BPRS % score change (rs301434 genotype T/C, Caucasians, negative = improvement): −0.310
Mean BNEG % score change (rs301434 genotype T/T, Caucasians & African-Americans combined): 0.636
Mean BPRS % score change (rs301434 genotype T/T, Caucasians, negative = improvement): 1.310
Mean BNEG % score change (rs1980943 genotype A/A, African-Americans, negative = improvement): 3.000
Mean BNEG % score change (rs1980943 genotype G/A, African-Americans, negative = improvement): −0.378
Mean BNEG % score change (rs1980943 genotype G/G, African-Americans, (6 months score-baseline score)/baseline score, negative = improvement): 0.067
